Results as given in PMC10949639, “Engineering Escherichia coli for high-yielding 2,5-Dimethylpyrazine synthesis from L-Threonine by reconstructing metabolic pathways and enhancing cofactors regeneration” (Biotechnology for Biofuels and Bioproducts, 2024).

Legend:
[1] = biological target: T1, EcTDH (L-threonine dehydrogenase) (Escherichia coli, UniProt P07913); test: NADH formation at […] nm, lysate supernatant; type: biochemical; conditions: 100 mM Tris-HCl pH 9.0, 100 mM L-threonine, 50 mM NAD+, 30 °C
T1 construct: gene tdh; recombinant from pACYCDuet-1 (BamH I/Hind III) in E. coli BL21(DE3); crude lysate supernatant; gene about 1100 bp
T1 sequence (P07913 1-341): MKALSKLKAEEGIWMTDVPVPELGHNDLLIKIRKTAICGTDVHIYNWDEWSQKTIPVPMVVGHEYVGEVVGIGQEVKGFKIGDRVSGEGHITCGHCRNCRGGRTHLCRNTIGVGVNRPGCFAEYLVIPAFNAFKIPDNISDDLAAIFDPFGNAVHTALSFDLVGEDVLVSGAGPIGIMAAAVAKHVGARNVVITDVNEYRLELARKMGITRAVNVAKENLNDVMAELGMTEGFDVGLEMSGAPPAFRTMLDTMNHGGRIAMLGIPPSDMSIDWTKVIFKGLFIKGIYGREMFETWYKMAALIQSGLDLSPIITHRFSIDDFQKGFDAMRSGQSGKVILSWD

EhNOX (NADH oxidase) = biological target: T2, EhNOX (NADH oxidase) (Enterococcus hirae, UniProt I6S3N3); test: NADH consumption, lysate supernatant; type: biochemical; conditions: 200 μM NADH, 10 μM FAD, 1 mM dithiothreitol, 20 mM citrate-sodium citrate pH 5.6
T2 construct: gene EHR_12315; recombinant from pACYCDuet-1-Ectdh-Ehnox (Nde I/Xho I) in E. coli BL21(DE3), co-expressed with EcTDH; crude lysate supernatant; gene about 1400 bp
T2 sequence (I6S3N3 1-450): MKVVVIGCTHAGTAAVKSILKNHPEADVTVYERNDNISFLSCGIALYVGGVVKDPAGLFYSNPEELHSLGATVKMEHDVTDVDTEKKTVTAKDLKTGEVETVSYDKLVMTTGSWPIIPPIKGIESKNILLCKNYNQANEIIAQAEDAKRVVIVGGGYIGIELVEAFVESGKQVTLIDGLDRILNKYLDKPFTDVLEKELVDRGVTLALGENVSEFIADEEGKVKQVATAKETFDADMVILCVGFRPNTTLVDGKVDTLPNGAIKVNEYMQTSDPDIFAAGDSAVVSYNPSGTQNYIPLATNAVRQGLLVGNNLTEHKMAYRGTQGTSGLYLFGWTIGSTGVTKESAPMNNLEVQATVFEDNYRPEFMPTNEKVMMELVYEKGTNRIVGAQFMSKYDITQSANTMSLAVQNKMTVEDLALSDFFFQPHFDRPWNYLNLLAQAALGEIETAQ

Row | Compound | NADH formation at 340 nm, lysate supernatant [1] | NADH consumption, lysate supernatant (EhNOX (NADH oxidase))
1 | C[C@@H](O)[C@H](N)C(=O)O [L-threonine] | The enzyme activity of EcTDH was determined using L-threonine as the substrate | –
2 | NC(=O)C1=CN([C@@H]2O[C@H](COP(=O)(O)OP(=O)(O)OC[C@H]3O[C@@H](n4cnc5c(N)ncnc54)[C@H](O)[C@@H]3O)[C@@H](O)[C@H]2O)C=CC1 [NADH] | – | The enzyme activity of EhNOX was determined using NADH as substrate
